{
  "source": "PubChem BioAssay AID330",
  "about": "(DTP/NCI, 2004)",
  "system": "P388 leukemia ip, CD2F1 mice, survival T/C",
  "experiment": "NCI In Vivo Anticancer Drug Screen. Data for tumor model P388 Leukemia (intraperitoneal) in CD2F1 (CDF1) mice",
  "details": "endpoint: median survival time, higher = longer survival",
  "summary_of_the_method": "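Mice carrying the transplanted tumor received test compound or vehicle. Survival was recorded in each group, and the value is the treated-group measurement divided by that of the vehicle-treated control group.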",
  "key": {"[1]": {"details": "dose: 50.0 mg/kg/injection, schedule: Q01DX005 (ip), vehicle: saline with Tween-80"}, "[2]": {"details": "dose: 100.0 mg/kg/injection, schedule: Q01DX005 (ip), vehicle: saline with Tween-80"}, "[3]": {"details": "dose: 50.0 mg/kg/injection, schedule: Q01DX005 (ip), vehicle: Klucel (hydroxypropylcellulose) (HPC)"}, "[4]": {"details": "dose: 100.0 mg/kg/injection, schedule: Q01DX005 (ip), vehicle: Klucel (hydroxypropylcellulose) (HPC)"}, "[5]": {"details": "dose: 200.0 mg/kg/injection, schedule: Q01DX005 (ip), vehicle: Klucel (hydroxypropylcellulose) (HPC)"}, "[6]": {"details": "dose: 60.0 mg/kg/injection, schedule: Q01DX005 (ip), vehicle: saline with Tween-80"}, "[7]": {"details": "dose: 120.0 mg/kg/injection, schedule: Q01DX005 (ip), vehicle: saline with Tween-80"}},
  "note": "Several values for one entry are separate records, joined by “and”; a condition that tells them apart may be missing. Equal values may be shown once. Inconclusive results and toxic doses are left out.",
  "data": [
    {"smiles": "CC(C)(C)[Si](OC(=O)CCCc1ccc(N(CCCl)CCCl)cc1)(c1ccccc1)c1ccccc1", "values": [
      {"measurement": "T/C", "setting": "dose: 25.0 mg/kg/injection, schedule: Q01DX005 (ip), vehicle: saline with Tween-80", "result": "123 % of control"},
      {"measurement": "T/C", "setting": "[1]", "result": "155 % of control and 175 % of control"},
      {"measurement": "T/C", "setting": "[2]", "result": "255 % of control"}
    ]},
    {"smiles": "CC(=O)/C=C1\\N(C)c2ccccc2C1(C)C", "values": [
      {"measurement": "T/C", "setting": "[3]", "result": "104 % of control"},
      {"measurement": "T/C", "setting": "[4]", "result": "107 % of control"},
      {"measurement": "T/C", "setting": "[5]", "result": "100 % of control"}
    ]},
    {"smiles": "COC(=O)CCSC(=S)Nc1ccc(Br)cc1", "values": [
      {"measurement": "T/C", "setting": "[3]", "result": "100 % of control"},
      {"measurement": "T/C", "setting": "[4]", "result": "100 % of control"},
      {"measurement": "T/C", "setting": "[5]", "result": "102 % of control"}
    ]},
    {"smiles": "C1=Nc2ccccc2OCCOc2ccccc2N=Cc2ccccc2NCCNc2ccccc21", "values": [
      {"measurement": "T/C", "setting": "dose: 100.0 mg/kg/injection, schedule: Q04DX003 (ip), vehicle: saline", "result": "97 % of control"},
      {"measurement": "T/C", "setting": "dose: 200.0 mg/kg/injection, schedule: Q04DX003 (ip), vehicle: saline", "result": "100 % of control"}
    ]},
    {"smiles": "COC(c1cccc(C(OC)(C(F)(F)F)C(F)(F)F)c1)(C(F)(F)F)C(F)(F)F", "values": [
      {"measurement": "T/C", "setting": "dose: 25.0 mg/kg/injection, schedule: Q01DX005 (ip), vehicle: Klucel (hydroxypropylcellulose) (HPC)", "result": "101 % of control"},
      {"measurement": "T/C", "setting": "[3]", "result": "96 % of control"},
      {"measurement": "T/C", "setting": "[4]", "result": "103 % of control"},
      {"measurement": "T/C", "setting": "[5]", "result": "90 % of control"}
    ]},
    {"smiles": "C1O[C@@H]1[C@H]1CO1", "values": [
      {"measurement": "T/C", "setting": "dose: 6.25 mg/kg/injection, schedule: Q01DX009 (ip), vehicle: saline", "result": "104 % of control"},
      {"measurement": "T/C", "setting": "dose: 6.25 mg/kg/injection, schedule: Q04DX003 (ip), vehicle: saline", "result": "120 % of control"},
      {"measurement": "T/C", "setting": "dose: 12.5 mg/kg/injection, schedule: Q01DX009 (ip), vehicle: saline", "result": "109 % of control"},
      {"measurement": "T/C", "setting": "dose: 12.5 mg/kg/injection, schedule: Q04DX003 (ip), vehicle: saline", "result": "120 % of control"},
      {"measurement": "T/C", "setting": "dose: 25.0 mg/kg/injection, schedule: Q01DX009 (ip), vehicle: saline", "result": "157 % of control"},
      {"measurement": "T/C", "setting": "dose: 25.0 mg/kg/injection, schedule: Q04DX003 (ip), vehicle: saline", "result": "100 % of control"}
    ]},
    {"smiles": "CCN(CC)CCNC(=O)c1nn(C)c(=S)[nH]c1=O", "values": [
      {"measurement": "T/C", "setting": "dose: 100.0 mg/kg/injection, schedule: Q04DX002 (ip), vehicle: Klucel (hydroxypropylcellulose) (HPC)", "result": "93 % of control"},
      {"measurement": "T/C", "setting": "dose: 200.0 mg/kg/injection, schedule: Q04DX002 (ip), vehicle: Klucel (hydroxypropylcellulose) (HPC)", "result": "93 % of control"},
      {"measurement": "T/C", "setting": "dose: 400.0 mg/kg/injection, schedule: Q04DX002 (ip), vehicle: Klucel (hydroxypropylcellulose) (HPC)", "result": "101 % of control"}
    ]},
    {"smiles": "COC(=O)C1(CS(C)=O)NC(=S)NC(=O)C1C#N", "note": "(stereo not drawn)", "values": [
      {"measurement": "T/C", "setting": "[6]", "result": "106 % of control"},
      {"measurement": "T/C", "setting": "[7]", "result": "99 % of control"},
      {"measurement": "T/C", "setting": "dose: 240.0 mg/kg/injection, schedule: Q01DX005 (ip), vehicle: saline with Tween-80", "result": "97 % of control"}
    ]},
    {"smiles": "O=C1Oc2ccccc2C(=O)C1=Ic1ccccc1", "values": [
      {"measurement": "T/C", "setting": "[3]", "result": "88 % of control"},
      {"measurement": "T/C", "setting": "[4]", "result": "94 % of control"},
      {"measurement": "T/C", "setting": "[5]", "result": "95 % of control"}
    ]},
    {"smiles": "Nc1ccc(-c2ccc(N=C(/C=N/O)NO)cc2)cc1", "values": [
      {"measurement": "T/C", "setting": "[3]", "result": "102 % of control"},
      {"measurement": "T/C", "setting": "[4]", "result": "100 % of control"},
      {"measurement": "T/C", "setting": "[5]", "result": "94 % of control"}
    ]},
    {"smiles": "O=c1[nH]c(=O)n(C2OC(CF)C(O)C2O)cc1Br", "note": "(stereo not drawn)", "values": [
      {"measurement": "T/C", "setting": "[3]", "result": "96 % of control"},
      {"measurement": "T/C", "setting": "[4]", "result": "96 % of control"},
      {"measurement": "T/C", "setting": "[5]", "result": "98 % of control"}
    ]},
    {"smiles": "COc1ccccc1NC(=O)C1=C(C)NC(C)=C(C(=O)Nc2ccccc2OC)C1c1c(Cl)cccc1Cl", "values": [
      {"measurement": "T/C", "setting": "[1]", "result": "94 % of control"},
      {"measurement": "T/C", "setting": "[2]", "result": "98 % of control"},
      {"measurement": "T/C", "setting": "dose: 200.0 mg/kg/injection, schedule: Q01DX005 (ip), vehicle: saline with Tween-80", "result": "95 % of control"}
    ]},
    {"smiles": "Nc1nc2c(ncn2C2OC(CO)C(O)C2O)c(=O)o1", "note": "(stereo not drawn)", "values": [
      {"measurement": "T/C", "setting": "[3]", "result": "106 % of control"},
      {"measurement": "T/C", "setting": "[4]", "result": "112 % of control"},
      {"measurement": "T/C", "setting": "[5]", "result": "116 % of control"},
      {"measurement": "T/C", "setting": "dose: 400.0 mg/kg/injection, schedule: Q01DX005 (ip), vehicle: Klucel (hydroxypropylcellulose) (HPC)", "result": "111 % of control"}
    ]},
    {"smiles": "CCOCc1nc(N)nc(N)c1-c1cccc(Cl)c1", "values": [
      {"measurement": "T/C", "setting": "[6]", "result": "100 % of control"},
      {"measurement": "T/C", "setting": "[7]", "result": "102 % of control"}
    ]},
    {"smiles": "CCCCOP(O)(=S)OCCCC.[Tb]", "values": [
      {"measurement": "T/C", "setting": "dose: 100.0 mg/kg/injection, schedule: Q04DX002 (ip), vehicle: saline with Tween-80", "result": "100 % of control"},
      {"measurement": "T/C", "setting": "dose: 200.0 mg/kg/injection, schedule: Q04DX002 (ip), vehicle: saline with Tween-80", "result": "96 % of control"},
      {"measurement": "T/C", "setting": "dose: 400.0 mg/kg/injection, schedule: Q04DX002 (ip), vehicle: saline with Tween-80", "result": "95 % of control"}
    ]}
  ]
}
